Laboratory results as given in the NIST ThermoML archive (doi:10.1021/je700245a).

Experiment: xn = mol fraction of the nth substance listed
Conditions: 101 kPa, Liquid; for speed of sound: Sing-around technique in a fixed-path interferometer

CN(CCO)CCO [N-methyldiethanolamine] + CCO
Conditions	mass density, 303.15 K [kg/m3]	mass density, 308.15 K [kg/m3]	mass density, 313.15 K [kg/m3]	speed of sound, 303.15 K [m/s]	speed of sound, 308.15 K [m/s]	speed of sound, 313.15 K [m/s]
x1 = 0.0049	784.48	779.2	775.41	1132.3	1114.8	1098.8
x1 = 0.0253	797.45	792.51	788.32	1151.2	1134.5	1117.9
x1 = 0.0524	812.97	807.85	803.95	1172.7	1156.3	1139.8
x1 = 0.102	841.06	835.99	831.61	1211.8	1195.6	1179.5
x1 = 0.1629	869.83	864.64	860.34	1257.3	1241.5	1225.8
x1 = 0.2474	902.4	897.2	892.65	1310	1293	1278
x1 = 0.3713	938.24	933.17	928.65	1369.4	1354.1	1339
x1 = 0.4806	963.57	958.75	954	1414	1398.8	1383.7
x1 = 0.5506	977.52	972.75	967.98	1439	1423.8	1408.7
x1 = 0.7035	1000.62	996.08	991.6	1484.3	1468.9	1453.6
x1 = 0.7916	1011.24	1006.79	1002.49	1505.6	1490.3	1475.1
x1 = 0.8688	1019.64	1015.81	1011.97	1520.8	1506.2	1491.5
x1 = 0.9415	1027.42	1023.63	1019.82	1535	1520.4	1506.1
x1 = 1	1033.06	1029.26	1025.45	1546	1531	1516
